Laboratory results reported in paper PMC4682634 (PLoS ONE, 2015).

Target: T1, endogenous BK channel (Rattus norvegicus, UniProt Q62976)
T1 construct: gene Kcnma1; endogenous BK in A7r5 smooth muscle cells
Assay: whole-cell patch-clamp, paxilline-sensitive current density in A7r5 cells
Format: cell-based

T1 sequence (Q62976 whole entry): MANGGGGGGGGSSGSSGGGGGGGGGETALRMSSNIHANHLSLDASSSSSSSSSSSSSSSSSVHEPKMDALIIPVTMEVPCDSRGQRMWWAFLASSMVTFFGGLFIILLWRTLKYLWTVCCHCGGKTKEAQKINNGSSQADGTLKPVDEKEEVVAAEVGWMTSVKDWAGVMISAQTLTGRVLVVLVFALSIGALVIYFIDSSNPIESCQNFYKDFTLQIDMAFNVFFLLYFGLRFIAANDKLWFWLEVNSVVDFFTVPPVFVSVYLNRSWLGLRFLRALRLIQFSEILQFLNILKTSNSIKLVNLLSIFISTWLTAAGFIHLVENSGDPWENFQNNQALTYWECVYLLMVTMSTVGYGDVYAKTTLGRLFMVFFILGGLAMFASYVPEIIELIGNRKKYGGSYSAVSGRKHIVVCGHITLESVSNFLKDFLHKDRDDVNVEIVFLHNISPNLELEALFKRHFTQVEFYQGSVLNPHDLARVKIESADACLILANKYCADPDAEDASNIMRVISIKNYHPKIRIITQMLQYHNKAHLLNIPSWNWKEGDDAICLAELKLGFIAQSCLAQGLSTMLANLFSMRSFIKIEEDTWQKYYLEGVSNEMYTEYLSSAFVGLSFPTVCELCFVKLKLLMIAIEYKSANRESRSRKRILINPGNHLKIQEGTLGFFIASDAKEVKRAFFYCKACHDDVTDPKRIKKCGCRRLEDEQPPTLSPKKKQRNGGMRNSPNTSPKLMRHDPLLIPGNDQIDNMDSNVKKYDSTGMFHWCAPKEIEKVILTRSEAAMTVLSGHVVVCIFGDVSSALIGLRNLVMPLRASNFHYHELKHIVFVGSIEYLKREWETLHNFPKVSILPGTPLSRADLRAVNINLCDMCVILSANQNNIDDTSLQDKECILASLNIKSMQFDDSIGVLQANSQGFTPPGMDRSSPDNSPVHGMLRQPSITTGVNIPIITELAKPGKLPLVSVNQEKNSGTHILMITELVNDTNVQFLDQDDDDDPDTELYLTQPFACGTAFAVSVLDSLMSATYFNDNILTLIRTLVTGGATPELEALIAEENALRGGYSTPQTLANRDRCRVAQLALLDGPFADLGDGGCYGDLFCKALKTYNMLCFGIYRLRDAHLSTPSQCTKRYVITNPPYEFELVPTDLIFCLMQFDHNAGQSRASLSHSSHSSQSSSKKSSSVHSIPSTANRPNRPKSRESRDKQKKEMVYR

COc1cc(/C=C/C(=O)CC(=O)/C=C/c2ccc(O)c(OC)c2)ccc1O [curcumin]
EC50: 6.93 ± 0.78 µM
